Like-named read-outs stand apart in the source and are kept apart here.

The target in one assay is human CSNK1A1 (Homo sapiens (Human), UniProt P48729). The experiment in a line: CSNK1A1 assay (ADP-Glo, 1 μM ATP). Format: biochemical. As to conditions: median, read-out: CSNK1A1 Low ATP IC50 [mol/l] (median). On the procedure: CSNK1A1-inhibitory activity of compounds of the present invention in presence of 1 μM adenosine-tri-phosphate (ATP) was quantified employing the CSNK1A1 assay as described in the following paragraphs. In essence, the enzyme activity is measured by quantification of the adenosine-di-phosphate (ADP), which is generated as a co-product of the enzyme reaction, via the “ADP-Glo™ Kinase Assay” kit from the company Promega. This detection system works as follows: In a first step the ATP not consumed in the kinase reaction is quantitatively converted to CAMP employing an adenylate cyclase (“ADP-Glo-reagent”), then the adenylate cyclase is stopped and the ADP generated in the kinase reaction converted to ATP which generates in a luciferase-based reaction a glow-luminescence signal (“Kinase Detection Reagent”).
Recombinant fusion protein of N-terminal Glutathion-S-Transferase (GST) and full-length human CSNK1A1, expressed by baculovirus infected insect cells and purified via Glutathion affinity chromatography, was purchased from Life Technologies (product no. PV4174) and used as enzyme. As substrate for the kinase reaction the biotinylated peptide biotin-Ahx-KRRRAL-pS-VASLPGL (C-terminus in amide form) was used which can be purchased e.g. from the company Biosyntan (Berlin-Buch, Germany).
For the assay 50 nl of a 100-fold concentrated solution of the test compound in DMSO was pipetted into a white 1536-well microtiter plate (Greiner Bio-One, Frickenhausen, Germany), 2 μL of a solution of CSNK1A1 in aqueous assay buffer [50 mM HEPES pH 7.5, 10% (v/v) glycerol, 10 mM MgCl2, 50 mM NaCl, 1 mM dithiothreitol, 0.01% (w/v) bovine serum albumin, 0.01% (v/v) Triton X-100] were added and the mixture was incubated for 15 min at 22° C. to allow pre-binding of the test compounds to the enzyme before the start of the kinase reaction. Then the kinase reaction was started by the addition of 3 μL of a solution of ATP (1.67 μM=>final conc. in the 5 μL assay volume is 1 μM) and peptide substrate (50 μM=>final conc. in the 5 μL assay volume is 30 μM) in assay buffer and the resulting mixture was incubated for a reaction time of 30 min at 22° C. The concentration of CSNK1A1 was adjusted depending of the activity of the enzyme lot and was chosen appropriate to have the assay in the linear range, a typical concentrations are about 0.0375 ng/μL. The reaction was stopped by the addition of 2.5 μL of “ADP-Glo-reagent” (1:1.5 fold diluted with water) and the resulting mixture was incubated at 22° C. for 1 h to convert the ATP not consumed in the kinase reaction completely to CAMP. Subsequently 2.5 μL of the “kinase detection reagent” (1.2 fold more concentrated than recommended by the producer) were added, the resulting mixture was incubated at 22° C. for 1 h and then the luminescence measured with a suitable measurement instrument (e.g. Viewlux™ from Perkin-Elmer). The amount of emitted light was taken as a measure for the amount of ADP generated and thereby for the activity of the CSNK1A1.
The data were normalised (enzyme reaction without inhibitor=0% inhibition, all other assay components but no enzyme=100% inhibition).
Background: ADP-Glo first removes unused ATP, then detects ADP through luciferase.

Another assay has as its system LoVo cells. The experiment in a line: LoVo cell proliferation assay, CTG method. Format: cell-based. As to conditions: 96 h, median, read-out: 2D-PROLI LoVo CTG 96 h, IC50 - [mol/l] (median). On the procedure:
CELL PROLIFERATION ASSAY CTG METHOD, 384-well version: Day 1: plate 400 cells/30 μL/well in growth medium (RPMI 1640 (Gibco #61870-10; with Glutamax)+10% FBS) in 384-well black plates (Corning #3571). Plated sister wells in a separate plate for time zero determination. Incubated all plates overnight at 37° C. Day 2: added test compounds in serial dilutions using the HP D300 Digital Dispenser and incubate at 37° C. for 96 h. Measured time zero plate: add 30 μL/well CTG solution (Promega CellTiter-Glo solution (catalog #G7573)) to wells in time zero plate; incubated for 2 minutes in a orbital shaker to induce cell lysis; allowed the plate to incubate at room temperature for additional 10 min to stabilize luminescent signal and read luminescence on PheraStar (rapid mode-0.02 sec/well; GAIN 3000). Day 6: Added 30 μL/well CTG solution to all test wells, incubated for 2 minutes in a orbital shaker to induce cell lysis; allowed the plate to incubate at room temperature for additional 10 min to stabilize luminescent signal and read luminescence on PheraStar (rapid mode-0.02 sec/well; GAIN 3000). Proliferation IC50s were calculated using the DRC application in ShiNy Analysis Platform-SNAP.”

human CSNK1A1, sequence (P48729 whole entry): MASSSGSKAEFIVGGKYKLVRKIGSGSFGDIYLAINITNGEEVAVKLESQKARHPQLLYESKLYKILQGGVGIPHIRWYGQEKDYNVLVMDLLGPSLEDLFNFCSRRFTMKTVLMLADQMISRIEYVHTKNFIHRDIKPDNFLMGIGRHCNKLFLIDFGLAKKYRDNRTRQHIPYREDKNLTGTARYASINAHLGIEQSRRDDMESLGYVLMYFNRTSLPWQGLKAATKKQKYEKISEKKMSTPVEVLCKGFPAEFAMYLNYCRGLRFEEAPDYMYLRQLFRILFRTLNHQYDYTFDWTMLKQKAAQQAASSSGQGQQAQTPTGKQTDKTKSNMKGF

Consider `Cc1nc(CC(=O)Nc2cc(-c3[nH]c4cccnc4c3-c3ccccn3)ccn2)co1` [Example 25, 2-(2-methyloxazol-4-yl)-N-[4-[3-(2-pyridyl)-^1H-pyrrolo[3,2-b]pyridin-2-yl]-2-pyridyl]acetamide], for which the results for the IC50 at human CSNK1A1 and in the assay with LoVo cells (Homo sapiens) were 2.79 nM and 2110 nM, respectively.

For `Cc1cc(CC(=O)Nc2cc(-c3[nH]c4cccnc4c3-c3ccccn3)ccn2)no1` [Example 26, 2-(5-methylisoxazol-3-yl)-N-[4-[3-(2-pyridyl)-^1H-pyrrolo[3,2-b]pyridin-2-yl]-2-pyridyl]acetamide], the values for the IC50 on human CSNK1A1 and in the assay with LoVo cells (Homo sapiens) were 2.03 nM and 2100 nM, respectively.

For the compound `O=C(Cc1cc(C2CC2)on1)Nc1cc(-c2[nH]c3cccnc3c2-c2ccccn2)ccn1` [Example 27, 2-(5-cyclopropylisoxazol-3-yl)-N-[4-[3-(2-pyridyl)-^1H-pyrrolo[3,2-b]pyridin-2-yl]-2-pyridyl]acetamide], the IC50 stood at 1.57 nM at human CSNK1A1 and 749 nM with LoVo cells (Homo sapiens).

On to `CC(C)n1ccc(CC(=O)Nc2cc(-c3[nH]c4cccnc4c3-c3ccccn3)ccn2)n1` [Example 28, 2-(1-isopropylpyrazol-3-yl)-N-[4-[3-(2-pyridyl)-^1H-pyrrolo[3,2-b]pyridin-2-yl]-2-pyridyl]acetamide], for which the values for the IC50 on human CSNK1A1 and with LoVo cells (Homo sapiens) were 2.28 nM and 636 nM, respectively.

Consider `Cn1nc(CC(=O)Nc2cc(-c3[nH]c4cccnc4c3-c3ccccn3)ccn2)cc1C1CC1` [Example 29, 2-(5-cyclopropyl-1-methyl-pyrazol-3-yl)-N-[4-[3-(2-pyridyl)-^1H-pyrrolo[3,2-b]pyridin-2-yl]-2-pyridyl]acetamide], for which the IC50 at human CSNK1A1 was determined as 2.21 nM; in the assay on LoVo cells (Homo sapiens), 782 nM.

Regarding `Cc1nocc1CC(=O)Nc1cc(-c2[nH]c3cccnc3c2-c2ccccn2)ccn1` [Example 30, 2-(3-methylisoxazol-4-yl)-N-[4-[3-(2-pyridyl)-^1H-pyrrolo[3,2-b]pyridin-2-yl]-2-pyridyl]acetamide], the IC50 on human CSNK1A1 was 2.62 nM; in the assay with LoVo cells (Homo sapiens) it was 10500 nM.

Take `O=C(Nc1cc(-c2[nH]c3nccnc3c2-c2ccccn2)ccn1)[C@@H](CC(F)F)c1ccc(F)cc1` [Example C1, reference compound]: the values for the IC50 on human CSNK1A1 and in the assay on LoVo cells were 1.25 nM and 211 nM, respectively.

In the case of `O=C(Nc1cc(-c2[nH]c3ccc(F)nc3c2-c2ccccn2)ccn1)[C@@H](CC(F)F)c1ccc(F)cc1` [Example C2, reference compound], the IC50 on human CSNK1A1 was found to be 1.21 nM; in the assay on LoVo cells it was 115 nM.

Turning to `O=C(Nc1cc(-c2[nH]c3c(OCC(F)F)ncnc3c2-c2ccccn2)ccn1)[C@@H](CC(F)F)c1ccc(F)cc1` [Example C3, reference compound], the IC50 was found to be 3.1 nM on human CSNK1A1 and 115 nM with LoVo cells.

Source of the values: patent US20250188075A1, “SUBSTITUTED HETEROCYCLIC CSNK1 INHIBITORS” (The Broad Institute, Inc., priority 2022, published 2025).
